The subject of data set [1] is S. agalactiae. In words: QolorAST minimum inhibitory concentration (MIC) test. It counts as cell-based, Streptococcus agalactiae. As to the method:
(§1) Acinetobacter baumannii, Enterococcus faecalis, Enterococcus faecium, Streptococcus agalactiae, Enterobacter cloacae, Klebsiella pneumoniae, Streptococcus pneumoniae, E coli MG1655, and E coli Trimethoprim resistant were streaked on LB miller agar overnight at 37° C. and resuspended in water aliquot. Next, the bacterial concentration was determined using optical density technique. Subsequently, aliquots of different concentrations were prepared for the antibiotic susceptibility testing experiments in CamHB growth media.
(§2) 5×10^5 CFU ml^−1 Oxacillin-resistant S. aureus aliquots were prepared using resazurin/oxacillin solution using different concentrations of oxacillin antibiotic (16 μg/mL, 32 μg/mL, and 64 μg/mL). 5×10^5 CFU ml^−1 Cipro.
(§3) A minimum inhibitory concentration (MIC) was performed to study the QolorAST broad applicability in detecting bacterial resistance profiles and ensuring timely and efficient antimicrobial theraby. […] The antibiotics cover major bacterial inhibition mechanisms as inhibition of protein synthesis, cell wall synthesis, and/or DNA synthesis.
(§4) QolorAST exploited two methodologies: Manual MIC (MA-MIC) and support vector machine MIC (SVM-MIC). […] The SVM-MIC was carried out with a rbf kernel that was optimized and trained to predict the color change of the preclinical images using our library of bacteria images collected under different conditions including images where color is changed, color transitioning, and no color change. The SVM successfully classified the condition's bacteria-antibiotic in the concentration range studied.

The test system of data set [2] is S. agalactiae. In words: Conventional broth microdilution (BMD) MIC. It counts as cell-based, Streptococcus agalactiae. The procedure:
(§5) For clinical MIC, bacteria were streaked on LB agar overnight and resuspended in a water aliquot. The aliquot was measured, and the bacteria concentration was adjusted to of 10^6 CFU ml^−1 in LB media. A 96 well plate with an antibiotic gradient from 128 μg/ml to 0.125 μg/ml in a 2-fold concentration dilution step was prepared with a positive control with no antibiotics. Next, the bacteria were introduced to each well of the 96 well plate for a final bacteria concentration of 5×10^5 CFU ml^−1. The well plates were cultured overnight the minimum inhibitory concentration was determined as the antibiotic concentration that didn't show any signs of bacterial growth.
For orientation: In broth dilution the organism is exposed to a series of concentrations in liquid medium.

The test system of data set [3] is MRSA. In words: Conventional broth microdilution (BMD) MIC. It counts as cell-based, Staphylococcus aureus. The procedure: as §5
The test system of the next data set is serum proteins. To be noted: human serum; cited from earlier work.
The test system of data set [4] is MRSA. In words: QolorAST minimum inhibitory concentration (MIC) test. It counts as cell-based, Staphylococcus aureus. The procedure:
(§6) Ampicillin-resistant E. coli strain mm294 was cultured overnight at 37° C. in Luria broth (LB) media supplemented with 100 μg/mL Ampicillin. […] Next, the bacterial concentration was determined by optical density technique using a Spectronic 21D spectrophotometer. Subsequently, aliquots of different concentrations were prepared for the antibiotic susceptibility testing experiments in LB media. Biotyper spectra (MALDI Bruker).
as §2, §3, §4

The subject of data set [5] is MRSA. In words: Phenotypic QolorAST rapid AST (resazurin reduction). It counts as cell-based, Staphylococcus aureus. The conditions noted are these: 10^5 cfu/mL MRSA, antibiotic concentrations, 0-60 min. As to the method: (§7) Resistant E. coli, Oxacillin-resistant S. aureus, and Cipro. Resistant PA respectively was used. The aliquots were incubated at 37° C. different periods starting from 0 minutes incubation till 60 minutes with a time step of 5 minutes.
(§8) Resistant PA respectively was used. The aliquots were incubated at 37° C. different periods starting from 0 minutes incubation until 60 minutes with a time step of 5 minutes.
(§9) MRSA and PA respectively.
For orientation: Resazurin is reduced to fluorescent resorufin, in cell work by metabolically active cells.

A further data set relates to E coli mm 294. In words: QolorAST MIC test for E coli strains spiked in urine. In kind it is cell-based, Escherichia coli. The conditions noted are these: E coli mm 294 spiked in urine. As to the method: To obtain spiked human samples, first human urine was centrifuged at 5000 rcf for 5 minutes to remove large particles. It was subsequently spiked with 5×10^5 CFU ml^−1 and mixed with a solution of Resazurin to a final concentration of 0.02%. No antibiotics were added for the control aliquots, 32 μg/mL Ampicillin was added for resistant aliquots and 16 μg/mL Kanamycin was added for susceptible aliquots. The aliquots were incubated at 37° C. different periods starting from 0 minutes incubation till 60 minutes with a time step of 5 minutes.
According to the Infectious Diseases Society of America (IDSA), 105 CFU ml^−1 and 102 CFU ml^−1 were spiked in-vivo in urine, serum, and nasal swab of donors to simulate urinary tract infection, wound infection, and pneumonia by MRSA, respectively. Human urine was spiked with different concentrations of E. coli (FIG. 32D). As a control the healthy human biofluids were screened as received.

The next data set deals with E coli. In words: Phenotypic QolorAST rapid AST (resazurin reduction). In kind it is cell-based, Escherichia coli. The conditions noted are these: 10^5 cfu/mL E coli, antibiotic concentrations, 0-60 min. The procedure:
as §7, §8, §9

Data set [6] deals with S. pneumonia. In words: Conventional broth microdilution (BMD) MIC. It counts as cell-based, Streptococcus pneumoniae. As to the method: as §5
Data set [7] concerns A. baumannii. In words: QolorAST minimum inhibitory concentration (MIC) test. It counts as cell-based, Acinetobacter baumannii. The conditions noted are these: for MIC: both manually and through SVM. The procedure:
as §1, §2, §3, §4

In data set [8] the test system is K. pneumonia. Described as above. In kind it is cell-based, Klebsiella pneumoniae. The procedure:
as §1, §2, §3, §4

Data set [9] relates to S. pneumonia. Described as above. It counts as cell-based, Streptococcus pneumoniae. As to the method: as §1, §2, §3, §4
In data set [10] the test system is A. baumannii. In words: Conventional broth microdilution (BMD) MIC. In kind it is cell-based, Acinetobacter baumannii. As to the method:
as §5

Data set [11] has as its system E. cloacae. In words: QolorAST minimum inhibitory concentration (MIC) test. In kind it is cell-based, Enterobacter cloacae. As to the method: as §1, §2, §3, §4
For data set [12], the system named is E. cloacae. In words: Conventional broth microdilution (BMD) MIC. In kind it is cell-based, Enterobacter cloacae. As to the method:
as §5

In data set [13] the test system is K. pneumonia. In words: Conventional broth microdilution (BMD) MIC. It counts as cell-based, Klebsiella pneumoniae. As to the method:
as §5

For data set [14], the system named is PA. In words: Conventional broth microdilution (BMD) MIC. In kind it is cell-based, Pseudomonas aeruginosa. The procedure: as §5
The subject of the next data set is Pseudomonas aeruginosa. In words: Phenotypic QolorAST rapid AST (resazurin reduction). The conditions noted are these: 10^5 cfu/mL PA, antibiotic concentrations, 0-60 min. In kind it is cell-based. As to the method:
as §7, §8, §9

For data set [15], the system named is PA. In words: QolorAST minimum inhibitory concentration (MIC) test. It counts as cell-based, Pseudomonas aeruginosa. As to the method: as §6, §2, §3, §4

≈ marks a conversion by molar mass, not a printed value.

Turning to `Cc1onc(-c2ccccc2)c1C(=O)N[C@@H]1C(=O)N2[C@@H]1SC(C)(C)[C@@H]2C(=O)O` [Oxacillin], in the data set on S. agalactiae [1], the “MA-MIC/SVM-MIC/MIC Category” value was “S/S/S*”, the QolorAST MIC Manual (MA-MIC) was found to be 0.125 µg/mL, the QolorAST MIC SVM (SVM-MIC) came out at 0.125 µg/mL and the resistance or susceptibility entry is listed as “susceptible”. The “Broth Microdilution MIC (MIC)” value in the data set on S. agalactiae [2] is 0.125. Also, the “Broth Microdilution MIC (MIC)” value in the data set with MRSA [3] worked out at 64. In addition, the “drug bounded to serum proteins” value in the data set with serum proteins is 93%. In the data set on MRSA [4], the “MA-MIC/SVM-MIC/MIC Category” value is on record as “R/R/R”, the QolorAST MIC Manual (MA-MIC) amounted to 64 µg/mL, the QolorAST MIC SVM (SVM-MIC) amounted to 64 µg/mL and the resistance or susceptibility result is “resistance”. Moreover, the “QolorAST colour readout over incubation” value in the data set on MRSA [5] is recorded as “consistent color change from blue to green”.
One may read the MIC as the lowest concentration that inhibits growth of the organism. A lower MIC goes with a more susceptible organism. In the case of `NC[C@H]1O[C@H](O[C@H]2[C@H](O)[C@@H](O[C@H]3O[C@H](CO)[C@@H](O)[C@H](N)[C@H]3O)[C@H](N)C[C@@H]2N)[C@H](O)[C@@H](O)[C@@H]1O` [Kanamycin], the MIC in the data set on E coli mm 294 is 8 µg/mL (≈ 16.5 µM).
In the case of `CC1(C)S[C@@H]2[C@H](NC(=O)[C@H](N)c3ccccc3)C(=O)N2[C@H]1C(=O)O` [Ampicillin], in the data set with E coli, the “QolorAST colour readout over incubation” value is “consistent color change from blue to green”. Besides, the “Broth Microdilution MIC (MIC)” value with S. pneumonia [6], with A. baumannii [10], in the data set on E. cloacae [12] and in the data set on K. pneumonia [13] was more than 128 each time. Moreover, the “MA-MIC/SVM-MIC/MIC Category” value is reported as “R/R/R*” with A. baumannii [7], “R/R/R” with K. pneumonia [8], “R/R/R*” in the data set with S. pneumonia [9] and “R/R/R” with E. cloacae [11]. Moreover, the QolorAST MIC Manual (MA-MIC) in the data set with A. baumannii [7], in the data set on K. pneumonia [8], with S. pneumonia [9] and in the data set with E. cloacae [11] was more than 128 µg/mL in each case. In addition, the QolorAST MIC SVM (SVM-MIC) was more than 128 µg/mL with A. baumannii [7], 128 µg/mL in the data set with K. pneumonia [8], more than 128 µg/mL with S. pneumonia [9] and more than 128 µg/mL with E. cloacae [11]. In addition, in the data set with A. baumannii [7], the MIC is more than 128 µg/mL. In addition, the “relative susceptibility from MIC values” with K. pneumonia [8] is on record as “enhanced susceptibility to ampicillin over colistin”.
Gentamicin: in the data set on PA [14], the “Broth Microdilution MIC (MIC)” value is reported as 0.5. Besides, the “QolorAST colour readout over incubation” value with Pseudomonas aeruginosa is “consistent blue color”. Further, in the data set with PA [15], the “MA-MIC/SVM-MIC/MIC Category” value is “S/S/S*”, the MIC outcomes was 0.5 µg/mL, the QolorAST MIC Manual (MA-MIC) is 0.5 µg/mL and the QolorAST MIC SVM (SVM-MIC) is 0.5 µg/mL. Moreover, the “classification by clinical breakpoints” value with PA [15] is listed as “susceptible”.
Regarding Colistin, the “Broth Microdilution MIC (MIC)” value in the data set on S. pneumonia [6] is on record as more than 128; with S. agalactiae [2], 128; in the data set with A. baumannii [10] it was 8; with E. cloacae [12] it was 4; in the data set with K. pneumonia [13] it was 8. Besides, the “MA-MIC/SVM-MIC/MIC Category” value in the data set with S. agalactiae [1] is reported as “R/R/R*”; with A. baumannii [7], “R/R/R”; in the data set with K. pneumonia [8] it was “R/R/R”; in the data set on S. pneumonia [9], “R/R/R*”; in the data set on E. cloacae [11], “R/R/R”. In addition, the QolorAST MIC Manual (MA-MIC) is 128 µg/mL in the data set on S. agalactiae [1]; 8 µg/mL in the data set with A. baumannii [7]; 8 µg/mL in the data set on K. pneumonia [8]; more than 128 µg/mL in the data set with S. pneumonia [9]; 4 µg/mL with E. cloacae [11]. Further, the QolorAST MIC SVM (SVM-MIC) is more than 128 µg/mL with S. agalactiae [1]; 8 µg/mL with A. baumannii [7]; 8 µg/mL in the data set on K. pneumonia [8]; more than 128 µg/mL in the data set with S. pneumonia [9]; 4 µg/mL in the data set on E. cloacae [11]. Besides, the resistance or susceptibility result in the data set with S. agalactiae [1] is listed as “resistant”. The same molecule yielded an MIC in the data set with A. baumannii [7] of 8 µg/mL.

These data come from patent publication US20240253033A1, “MICROFLUIDIC DETECTION SYSTEM WITH ADJUSTABLE FLOW CONTROL” (priority 2022, published 2024).
